Laboratory results: PubChem BioAssay AID1963978 (Molecular Pharmacology Branch, DTP, NCI, 2024)

Test system: 616215-338-R-J1-PDC spheroids with HUVEC/MSC, viability
Experiment: Anticancer human tumor 616215-338-R-J1-PDC patient-derived colon adenocarcinoma cell line growth inhibition [PI3K]
Conditions: for viability, T/C: stronger effect = lower value
How it was run: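 Viability of mixed-cell spheroids was determined after exposure to pairwise combinations, one partner being inavolisib, alpelisib, duvelisib or copanlisib. Highest tested concentration matched clinical Cmax where known and 10 microM where not, descending in half-log steps.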
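Note: spheroids exposed to agents for seven days before the viability read.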

`Cn1ncnc1[C@H]1c2n[nH]c(=O)c3cc(F)cc(c23)N[C@@H]1c1ccc(F)cc1` + COc1c(OCCCN2CCOCC2)ccc2c3n(c(=NC(=O)c4cnc(N)nc4)nc12)CCN3 was tested, and the IC50 (curve of first compound, second compound 0.00316 µM) was > 100 nM, the IC50 (curve of first compound, second compound 0.01 µM) was > 100 nM and the IC50 (curve of first compound, second compound 0.0316 µM) was > 100 nM. For the same compound, the IC50 (curve of first compound, second compound 0.1 µM) was > 100 nM, the IC50 (curve of first compound, second compound 0.316 µM) was < 0.316 nM and the IC50 (curve of first compound, second compound 1 µM) was < 0.316 nM. The viability, T/C (second compound 0.00316 µM, first compound 0.000316 µM) was 99.2%, the viability, T/C (second compound 0.00316 µM, first compound 0.001 µM) was 101% and the viability, T/C (second compound 0.00316 µM, first compound 0.00316 µM) was 107%. It also gave a viability, T/C (second compound 0.00316 µM, first compound 0.01 µM) of 95.2%, a viability, T/C (second compound 0.00316 µM, first compound 0.0316 µM) of 92.5% and a viability, T/C (second compound 0.00316 µM, first compound 0.1 µM) of 94.1%. The viability, T/C (second compound 0.01 µM, first compound 0.000316 µM) was 93.8%, the viability, T/C (second compound 0.01 µM, first compound 0.001 µM) was 95.7% and the viability, T/C (second compound 0.01 µM, first compound 0.00316 µM) was 97.9%. It also gave a viability, T/C (second compound 0.01 µM, first compound 0.01 µM) of 97.7%, a viability, T/C (second compound 0.01 µM, first compound 0.0316 µM) of 96.9% and a viability, T/C (second compound 0.01 µM, first compound 0.1 µM) of 102%. It also gave a viability, T/C (second compound 0.0316 µM, first compound 0.000316 µM) of 96.9%, a viability, T/C (second compound 0.0316 µM, first compound 0.001 µM) of 99.3% and a viability, T/C (second compound 0.0316 µM, first compound 0.00316 µM) of 113%. For the same compound, the viability, T/C (second compound 0.0316 µM, first compound 0.01 µM) was 98%, the viability, T/C (second compound 0.0316 µM, first compound 0.0316 µM) was 97% and the viability, T/C (second compound 0.0316 µM, first compound 0.1 µM) was 95.7%. The viability, T/C (second compound 0.1 µM, first compound 0.000316 µM) was 111%, the viability, T/C (second compound 0.1 µM, first compound 0.001 µM) was 93.6% and the viability, T/C (second compound 0.1 µM, first compound 0.00316 µM) was 88.5%. It also gave a viability, T/C (second compound 0.1 µM, first compound 0.01 µM) of 81%, a viability, T/C (second compound 0.1 µM, first compound 0.0316 µM) of 89.4% and a viability, T/C (second compound 0.1 µM, first compound 0.1 µM) of 63.7%. It also gave a viability, T/C (second compound 0.316 µM, first compound 0.000316 µM) of 45.1%, a viability, T/C (second compound 0.316 µM, first compound 0.001 µM) of 41% and a viability, T/C (second compound 0.316 µM, first compound 0.00316 µM) of 31.9%. For the same compound, the viability, T/C (second compound 0.316 µM, first compound 0.01 µM) was 36.2%, the viability, T/C (second compound 0.316 µM, first compound 0.0316 µM) was 37% and the viability, T/C (second compound 0.316 µM, first compound 0.1 µM) was 29.8%. The viability, T/C (second compound 1 µM, first compound 0.000316 µM) was 29.8%, the viability, T/C (second compound 1 µM, first compound 0.001 µM) was 24.9% and the viability, T/C (second compound 1 µM, first compound 0.00316 µM) was 23.1%. For the same compound, the viability, T/C (second compound 1 µM, first compound 0.01 µM) was 19.5%, the viability, T/C (second compound 1 µM, first compound 0.0316 µM) was 19.4% and the viability, T/C (second compound 1 µM, first compound 0.1 µM) was 22.3%.
In the case of `COc1c(OCCCN2CCOCC2)ccc2c3n(c(=NC(=O)c4cnc(N)nc4)nc12)CCN3`, the viability, T/C (compound 0.00316 µM) is reported as 93.2% [middle of 8 runs], the viability, T/C (compound 0.01 µM) is reported as 96.5% [middle of 8 runs] and the viability, T/C (compound 0.0316 µM) is reported as 96.2% [middle of 8 runs]. For the same compound, the viability, T/C (compound 0.1 µM) was 91.2% [middle of 8 runs], the viability, T/C (compound 0.316 µM) was 45% [middle of 8 runs] and the viability, T/C (compound 1 µM) was 26.3% [middle of 8 runs]. For the same compound, the IC50 (compound alone, run of 05/09/2023) was 279 nM [middle of 7 runs].
